Measurements as given in patent US20230012368A1 (Hoffmann-La Roche Inc., priority 2018, published 2023).
Where a name gives a salt, the structure may show the parent alone.

Test system: Acinetobacter baumannii ATCC 17978
Assay: Antimicrobial susceptibility testing: 90% growth inhibitory concentration (IC90) determination
Type: cell-based
Settings: 90% growth inhibitory concentration; Acinetobacter baumannii ATCC17978; Iso-Sensitest broth, OD 600 nm over 16h; read-out: ATCC17978 IC90
How it was run: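 Compounds serially twofold diluted (e.g. 50 to 0.097 μM final) in Iso-Sensitest broth, inoculated at ~5×10^(5) CFU/ml, incubated at 35±2° C. OD600 read every 20 minutes over 16h. IC90 taken as concentration inhibiting 90% of growth during logarithmic phase.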

`CCc1cc(Nc2nccn3c(-c4ccc(OC)c(F)c4F)cnc23)ccc1C(=O)NCC(O)CNC(=O)[C@@H](N)CCCNC(=N)N` (mixture of isomers) [Example 405, rac-N-(3-((R)-2-amino-5-guanidinopentanamido)-2-hydroxypropyl)-4-((3-(2,3-difluoro-4-methoxyphenyl)imidazo[1,2-a]pyrazin-8-yl)amino)-2-ethylbenzamide diformate] gave an IC90 of 360 nM.

Same assay, conditions: Acinetobacter baumannii, ATCC17978, 16 h, 90% growth inhibitory concentration; Acinetobacter baumannii ATCC17978; Iso-Sensitest broth, OD 600 nm over 16h; read-out: ATCC17978 IC90

`CCc1cc(Nc2nccn3c(-c4ccc(OC)c(F)c4F)cnc23)ccc1C(=O)NCCCCCN` [Example 418, N-(5-aminopentyl)-4-((3-(2,3-difluoro-4-methoxyphenyl)imidazo[1,2-a]pyrazin-8-yl)amino)-2-ethylbenzamide hydrochloride] and `COc1ccc(-c2cnc3c(Nc4ccc(C(=O)NCCCCCN)c(Cl)c4)nccn23)c(F)c1F` [Example 492, N-(5-aminopentyl)-2-chloro-4-((3-(2,3-difluoro-4-methoxyphenyl)imidazo[1,2-a]pyrazin-8-yl)amino)benzamide hydrochloride] are within 1.5-fold of each other in IC90: 33 nM for the first, 44 nM for the second.

First: COc1ccc(-c2cnc3c(Nc4ccc(C(=O)NCC5CCN(C)CC5)c(C)c4)nccn23)cc1 [Example 52, 4-[[3-(4-methoxyphenyl)imidazo [1,2-a]pyrazin-8-yl]amino]-2-methyl-N-[(1-methylpiperidin-4-yl)methyl]benzamide]
Second: CCN(CC)C(=O)c1ccc(Nc2nccn3c(-c4ccc(OC)cc4)cnc23)cc1C [Example 220, N,N-diethyl-4-[[3-(4-methoxyphenyl)imidazo[1,2-a]pyrazin-8-yl]amino]-2-methylbenzamide]
The IC90 of the first is 1.6-fold lower: 750 nM for the first, 1200 nM for the second.

Going from `COc1ccc(-c2cnc3c(Nc4cc(C)c(C(=O)NCCCN)c(F)c4)nccn23)c(F)c1F` [Example 427, N-(3-aminopropyl)-4-((3-(2,3-difluoro-4-methoxyphenyl)imidazo[1,2-a]pyrazin-8-yl)amino)-2-fluoro-6-methylbenzamide formate] to `N#CCOc1ccc(-c2cnc3c(Nc4ccc(C(=O)NCCCCCCN)c(Cl)c4)nccn23)c(F)c1F` [Example 497, N-(6-aminohexyl)-2-chloro-4-((3-(4-(cyanomethoxy)-2,3-difluorophenyl)imidazo[1,2-a]pyrazin-8-yl)amino)benzamide], the IC90 falls from 690 nM to 25 nM (28-fold).

Going from `COc1ccc(-c2cnc3c(Nc4ccc(C(=O)NCCNC(=O)N5CCN[C@H](C(=O)O)C5)c(C)c4)nccn23)c(F)c1F` [Example 348, (2S)-4-[2-[[4-[[3-(2,3-difluoro-4-methoxyphenyl)imidazo[1,2-a]pyrazin-8-yl]amino]-2-methylbenzoyl]amino]ethyl-carbamoyl]piperazine-2-carboxylic acid;formic acid] to `CCc1cc(Nc2nccn3c(-c4ccc(OC)c(F)c4F)cnc23)ccc1C(=O)NCCCCC(=O)N1CCN[C@H](CO)C1` [Example 163, 4-[[3-(2,3-difluoro-4-methoxy-phenyl)imidazo[1,2-a]pyrazin-8-yl]amino]-2-ethyl-N-[5-[(3S)-3-(hydroxymethyl)piperazin-1-yl]-5-oxo-pentyl]benzamide], the IC90 falls from 1100 nM to 80 nM (14-fold).

First: COc1ccc(-c2cnc3c(Nc4ccc(C(=O)N(C)CC(=O)N5CCNC(=O)C5)c(C)c4)nccn23)cc1F [Example 6]
Second: Cc1cc(Nc2nccn3c(-c4ccc(OC(F)F)cc4)cnc23)ccc1C(=O)N(C)CC(=O)N(C)CC(=O)N1CCN(C)CC1 [Example 171, 4-[[3-[4-(difluoromethoxy)phenyl]im-idazo[1,2-a]pyrazin-8-yl]amino]-N,2-dimethyl-N-[2-[methyl-[2-(4-methylpiperazin-1-yl)-2-oxoethyl]amino]-2-oxoethyl]benzamide]
The IC90 of the first is 5.6-fold lower: 640 nM for the first, 3600 nM for the second.

`CCc1cc(Nc2nccn3c(-c4ccc(OC)c(F)c4F)cnc23)ccc1C(=O)NC[C@@H]1CCNC1` [Example 529, (R)-4-((3-(2,3-difluoro-4-methoxyphenyl)imidazo[1,2-a]pyrazin-8-yl)amino)-2-ethyl-N-(pyrrolidin-3-ylmethyl)benzamide hydrochloride] and `CCc1cc(Nc2nccn3c(-c4ccc(OC)c(F)c4F)cnc23)ccc1C(=O)NCc1cnc(N)s1` [Example 569, N-((2-aminothiazol-5-yl)methyl)-4-((3-(2,3-difluoro-4-methoxyphenyl)imidazo[1,2-a]pyrazin-8-yl)amino)-2-ethylbenzamide] are within 1.5-fold of each other in IC90: 110 nM for the first, 84 nM for the second.

First: CCc1cc(Nc2nccn3c(-c4ccc(OC)c(F)c4F)cnc23)ccc1C(=O)NCC[C@H](C)NC(=O)[C@@H](N)CCCNC(=N)N [Example 336, N-[(3S)-3-[[(2S)-2-amino-5-carbamimidamidopentanoyl]amino]butyl]-4-[[3-(2,3-difluoro-4-methoxyphenyl)imidazo[1,2-a]pyrazin-8-yl]amino]-2-ethylbenzamide; hydrochloride]
Second: CCc1cc(Nc2nccn3c(-c4ccc(OC)c(F)c4F)cnc23)ccc1C(=O)NCCCNC(=O)[C@@H](N)CCNC(=N)N [Example 367, N-[3-[[(2S)-2-amino-4-carbamimidamidobutanoyl]amino]propyl]-4-[[3-(2,3-difluoro-4-methoxyphenyl)imidazo[1,2-a]pyrazin-8-yl]amino]-2-ethylbenzamide;formic acid]
The IC90 of the first is 4.8-fold higher: 480 nM for the first, 100 nM for the second.

Going from `CCc1cc(Nc2nccn3c(-c4ccc(OC)c(F)c4F)cnc23)ccc1C(=O)NCC(O)CNC(=O)[C@@H](N)CCCN` (mixture of isomers) [Example 413, rac-N-(3-((R)-2,5-diaminopentanamido)-2-hydroxypropyl)-4-((3-(2,3-difluoro-4-methoxyphenyl)imidazo[1,2-a]pyrazin-8-yl)amino)-2-ethylbenzamide dihydrochloride] to `CCc1cc(Nc2nccn3c(-c4ccc(OC)c(F)c4F)cnc23)ccc1C(=O)NCC(O)CNC(=O)[C@@H](N)CCNC(=N)N` (mixture of isomers) [Example 416, rac-N-(3-((R)-2-amino-4-guanidinobutanamido)-2-hydroxypropyl)-4-((3-(2,3-difluoro-4-methoxyphenyl)imidazo[1,2-a]pyrazin-8-yl)amino)-2-ethylbenzamide diformate], the IC90 falls from 470 nM to 240 nM (2-fold).

Going from `CCc1cc(Nc2nccn3c(-c4ccc(OCC#N)c(F)c4F)cnc23)ccc1C(=O)NCCNC(=O)[C@@H](N)CCCCN` [Example 143, 4-[[3-[4-(cyanomethoxy)-2,3-difluoro-phenyl]imidazo[1,2-a]pyrazin-8-yl]amino]-N-[2-[[(2S)-2,6-diaminohexanoyl]amino]ethyl]-2-ethyl-benzamide formate] to `CCc1cc(Nc2nccn3c(-c4ccc(OC)c(F)c4F)cnc23)ccc1C(=O)NCCNC(=O)[C@@H](N)CCCNC(N)=O` [Example 332, N-[2-[[(2S)-2-amino-5-(carbamoylamino)pentanoyl]amino]ethyl]-4-[[3-(2,3-difluoro-4-methoxyphenyl)imidazo[1,2-a]pyrazin-8-yl]amino]-2-ethylbenzamide], the IC90 rises from 160 nM to 320 nM (2-fold).

First: COc1ccc(-c2cnc3c(Nc4ccc(C(=N)OCC(=N)N(C)C)c(C)c4)nccn23)cc1 [Example 16]
Second: Cc1cc(Nc2nccn3c(-c4ccc(OC(F)F)cc4)cnc23)ccc1C(=O)N(CCO)CCO [Example 262, 4-[[3-[4-(difluoromethoxy)phenyl]im-idazo[1,2-a]pyrazin-8-yl]amino]-N,N-bis(2-hydroxyethyl)-2-methylbenzamide]
The IC90 of the first is 6.2-fold lower: 810 nM for the first, 5000 nM for the second.
